The values below come from patent US11357749B2, “Methods for treating neutropenia” (Enzychem Lifesciences Corporation, priority 2014, dated 2022).

In one data set the test system is p38 MAPK. Put plainly: p38 MAPK phosphorylation, western blot in IgE-antigen stimulated RBL-2H3 cells. It is filed as cell-based. The conditions noted are these: PLAG pre-incubated RBL-2H3 cells, IgE-antigen complex stimulation. The method, then:
Dephosphorylation of p38 MAPK and ERK1/2 in PLAG-treated RBL-2H3 cells is determined by western blot analysis using anti-phospho-p38 and anti-phospho-ERK1/2 respectively. To activate the p38 and ERK1/2 in RBL-2H3 cells, the cells are sensitized with 50 ng/mL of anti-DNP-IgE overnight. After washing with PBS three times, 20 ng/ml of DNP-HSA is added. Each cell lysate for western blot is prepared in the PLAG-treated RBL-2H3 cells in a dose-dependent manner and incubated for the same time (15 min). β-actin is used as internal controls. ERK1/2 and p38 phosphorylation start immediately after IgE-antigen complex stimulation and remain sufficiently activated for 5 min.
On the technique in general: In western blotting, separated proteins are transferred to a membrane and probed.

A further data set has as its system monocytes. Briefly: Monocyte ratio in blood of LPS-treated C57BL/6 mice. The following applies: C57BL/6 mouse, LPS + PLAG, ratio to total leukocytes. The data set is classed as in vivo. The method, then: To observe the ratio of neutrophil and lymphocyte in the blood of Balb/C mice, 1 mg/kg of lipopolysaccharide (LPS) is injected to mice, i.p. to induce inflammation. 5 mg/kg of PLAG is administered to the mice orally and blood samples are taken at 3 and 13 days after. In addition, for comparison, normal mice that are not treated with PLAG, receive PBS (phosphate buffered saline) and olive oil. The blood samples taken from the mice are treated with EDTA bottle 0.5 ml (Minocollect tube, Greiner bio-one, Austria) and the level of neutrophils (NEU) and lymphocytes (LYM) as a percentage of total leukocytes is measured using automated blood sample analyzer BC-6800 (Mindray, Shenzhen, China).
Except for using C57BL/6 mouse instead of Balb/C mouse, mice are treated in the same manner as Example 6, the monocyte ratio (Mono) to total leukocytes is measured and the results are shown in Table 5.

Another data set relates to HepG2 cells. Briefly: WST-1 cell viability assay in HepG2 cells. It is filed as cell-based. The following applies: HepG2, PLAG 1 to 100 μg/ml. The method, then:
The incubated HepG2 cell lines are treated with PLAG (1˜100 μg/ml), followed by IL-4 and TNF-α, reacted for 1 hour, incubated for 18 hours at 37° C. and the supernatant isolated. Quantitation of the amount of C3 in the cellular culture medium (supernatant) from HepG2 cells is performed by ELISA using a commercially available monoclonal antibody (mAb, R&D Systems) and the manufacture's protocol; the results are presented in FIG. 3. C3 is expressed spontaneously under in vitro culture condition using 10% FCS added to HepG2 cells incubated for 12 hr. The cells are treated with different doses of PLAG from 1 to 100 μg/ml (Panel A, Panel B) or 10 and 100 μg/ml of S6I (Panel C), reacted with IL-4 and TNF-α for 1 hr and then incubated for 18 hr at 37° C. Cellular viability is confirmed using the WST-1 assay (Panel A).
In general terms: Tetrazolium assays rely on reduction of a dye to a coloured formazan, in cell work by metabolically active cells.

A further data set relates to sepsis. The conditions noted are these: sepsis animal model, cecal-ligation-puncture; stated as known; cited from earlier work.
The next data set has as its system C4. Briefly: Clinical study in healthy subjects: C4 in blood. It is filed as in vivo, human.
A further data set relates to C3. Briefly: C3 protein by ELISA in HMC-1 cells. The conditions noted are these: HMC-1, PLAG 1, 10 and 100 μg/mL for 2 hours, 72 hours activation with 10% FBS. It is filed as cell-based, human. The method, then: In a separate experiment, human mast cells (HMC-1, 1×10^5 cell/ml) are treated with PLAG of various concentrations (1, 10 and 100 μg/mL) for 2 hours. The cells are activated for 72 hours with 10% FBS (Fetal bovine serum) containing IMDM. The decrease of C3 is confirmed by ELISA analysis of the expressed protein.

Another data set deals with neutrophils. Briefly: Chemotherapy-induced neutropenia mouse model (neutrophil count, survival). The data set is classed as in vivo, mice. The procedure: The effect of PLAG for treatment of neutropenia and thrombocytopenia induced by chemotherapy (CIN) is evaluated in an animal model. Anti-cancer agents (Gemcitabine 50 mg/kg, Cyclosphosphamide 100 mg/kg, or Tamoxifen 50 mg/kg) are dosed daily for 3 weeks; PLAG is also administered 50 mg/kg daily for 3 weeks. After three weeks, neutrophils are harvested and counted with Auto Hematology Analyzer BC-5300.

The test system of another data set is STAT6. Briefly: IL-4 induced STAT6 phosphorylation, western blot in U937, A549 and Jurkat cells. The following applies: PLAG 0.01 to 10 μg/ml, 10 ng/ml IL-4, 15 min. It is filed as cell-based. The procedure: Dephosphorylation of STAT6 is examined using anti-phosphorylated STAT6 in U937, A549, and Jurkat cell lysates treated with PLAG concentration from 0.01 to 10 μg/ml. Phosphorylation of STAT6 is induced by treatment with 10 ng/ml of IL-4. Dephosphorylation of STAT1 is examined in the U937 cell lysate treated with PLAG (0.01 to 10 μg/ml). Phosphorylation of STAT1 is induced by 10 ng of IFN-γ treatment. Dephosphorylation of STAT1 and STAT6 is examined at 15 min after stimulation with IFN-γ and IL-4 respectively, in the PLAG pretreated cells. […] The transcriptional activity of STAT6 is decreased by the dephosphorylation of STAT6. […] No effect of PLAG on STAT1 phosphorylation is observed.

The subject of another data set is platelets. Put plainly: Phenylhydrazine-induced platelet reduction in mice. The data set is classed as in vivo. The conditions noted are these: PHZ 100 mg/kg i.p. + PLAG 5 mg/kg oral. The procedure: Mice are injected with 100 mg/kg phenylhydrazine (PHZ), i.p., to induce anemia and reduction of platelets. 5 mg/kg PLAG is administered to the mice orally and blood samples are taken at 3 and 13 days after. In addition, for comparison, normal mice which are not treated with phenylhydrazine are prepared as a normal group, and mice treated with PHZ and olive oil instead of PLAG are prepared as a control group. The blood samples taken from the mice are treated with 0.5 ml EDTA (Minicollect tube, Greiner bio-one, Austria) and concentration of platelet is measured using automated blood sample analyzer BC-6800 (Mindray, Shenzhen, China) by number of platelet per […] (k: 1,000).

On to `CCCCC/C=C\C/C=C\CCCCCCCC(=O)OC(COC(C)=O)COC(=O)CCCCCCCCCCCCCCC` (racemic) [PLAG, 1-palmitoyl-2-linoleoyl-3-acetylglycerol], for which, in the data set on p38 MAPK, the p38 phosphorylation result is “down-regulated”. Moreover, in the data set with monocytes, the Monocyte ratio is recorded as 18.4 ± 6.6%. In addition, the “cellular viability (WST-1)” value in the data set on HepG2 cells was “does not affect the cellular propagation and death”. Besides, in the data set with sepsis, the “survivability ratio of animals” value is given as “increases survivability ratio”. Moreover, the “C4, After” value in the data set on C4 (healthy subjects n = 27, 500 mg PLAG per day oral, after 4-wk intervention) worked out at 20.8 ± 5.6 mg/dL. Further, in the data set on C4 (healthy subjects n = 27, before PLAG supplementation), the “C4, Before” value amounted to 21.6 ± 6.6 mg/dL. Besides, the “decrease of C3 (ELISA)” value in the data set on C3 was “proportional to the concentration of PLAG”. In the data set on neutrophils (Gemcitabine 50 mg/kg, Cyclosphosphamide 100 mg/kg or Tamoxifen 50 mg/kg daily, PLAG 50 mg/kg daily, 3 weeks), the “reduced neutrophil count following chemotherapy” value is “prevented”. In addition, in the data set with neutrophils (PLAG with Gemcitabine vs Gemcitabine alone), the survival rate result was “improved survival rate”. The “activities and survival rate” value in the data set on neutrophils (Tamoxifen 50 mg/kg co-treated with PLAG vs Tamoxifen only) is “faster improvement of activities and survival rate”. In addition, the neutrophil score entry in the data set on neutrophils (mice treated with PLAG 50 mg/kg and Gemcitabine 50 mg/kg daily, 3 weeks) was “improved significantly”. For the same compound, the neutrophil count result in the data set with neutrophils (mice treated with PLAG 50 mg/kg and cyclophosphamide 100 mg/kg daily, 3 weeks, vs control group) was “improved significantly”. Also, the “IL-4 induced STAT6 phosphorylation” value with STAT6 (A549 cells), with STAT6 (Jurkat cells) and in the data set on STAT6 (U937 cells) was “inhibited with increasing PLAG concentrations” throughout. Further, the “Platelet (day 3) Conc” value with platelets (day 3) came to 1072 ± 125.4 k/ul. Also, the “Platelet (day 13) Conc” value in the data set on platelets (day 13) is given as 1188.8 ± 115.6 k/ul.
